Measurements as given in US5668134A, “Method for preventing or reducing photosensitivity and/or phototoxicity reactions to medications” (priority 1994, dated 1997).
Several values for one entry are separate records, joined by “and”; a condition that tells them apart may be missing. Equal values may be shown once. Where a name gives a salt, the structure may show the parent alone.

Key:
[1] = system: skin of healthy volunteers; experiment: Example 5: severity of radiation-induced photoreactions (edema or blisters)
Experimental: The number of skin patches with edema, or local swelling of the skin surface, were also counted. MEDs were measured separately for UVA and UVB radiation, and for UVA radiation alone. The baseline MED was defined in the manner described hereinabove. The 24 hour evaluation was allowed to be performed in the morning of Study Day 1. Severity of reactions causing edema and/or blisters were graded under the following grading system:
Severity was assessed by comparing the numbers of subjects with responses graded as 2 (edema) or 3 (blisters).

[2] = Pharmacokinetics in patients with cirrhosis; type: in vivo, human; conditions: 12 patients with cirrhosis, 400 mg single dose
[3] = UVA & UVB, a.m., 0 h post-radiation
[4] = UVA & UVB, a.m., 3 h post-radiation
[5] = UVA & UVB, a.m., 6 h post-radiation
[6] = UVA & UVB, a.m., 24 h post-radiation
[7] = UVA & UVB, a.m., 48 h post-radiation
[8] = UVA & UVB, a.m., 72 h post-radiation
[9] = UVA & UVB, p.m., 0 h post-radiation
[10] = UVA & UVB, p.m., 3 h post-radiation
[11] = UVA & UVB, p.m., 6 h post-radiation
[12] = UVA & UVB, p.m., 24 h post-radiation
[13] = UVA & UVB, p.m., 48 h post-radiation
[14] = UVA & UVB, p.m., 72 h post-radiation

CCn1cc(C(=O)O)c(=O)c2cc(F)c(N3CCNC(C)C3)c(F)c21 (racemic) [lomefloxacin HCl, monohydrochloride salt of (±)-1-ethyl-6,8-difluoro-1,4-dihydro-7-(3-methyl-1-piperazinyl)-4-oxo-3-quinolinecarboxylic acid]
5 subjects: NUMBER OF SUBJECTS WITH SCORE >= 2, COUNT ([1]; UVA, a.m., 24 h post-radiation)
69.23% and 69%: SUBJECTS WITH SCORE >= 2, PERCENT ([1]; UVA, a.m., 6 h post-radiation)
38.46%: SUBJECTS WITH SCORE >= 2, PERCENT ([1]; UVA, a.m., 24 h post-radiation)
9 subjects: NUMBER OF SUBJECTS WITH SCORE >= 2, COUNT ([1]; UVA, a.m., 6 h post-radiation)
6 subjects: NUMBER OF SUBJECTS WITH SCORE >= 2, COUNT ([1]; UVA, a.m., 3 h post-radiation)
46.15%: SUBJECTS WITH SCORE >= 2, PERCENT ([1]; UVA, a.m., 3 h post-radiation)
0.00%: SUBJECTS WITH SCORE >= 2, PERCENT [1, 3] | SUBJECTS WITH SCORE >= 2, PERCENT [1, 4] | SUBJECTS WITH SCORE >= 2, PERCENT [1, 6] | SUBJECTS WITH SCORE >= 2, PERCENT [1, 7] | SUBJECTS WITH SCORE >= 2, PERCENT [1, 8] | SUBJECTS WITH SCORE >= 2, PERCENT [1, 9] | SUBJECTS WITH SCORE >= 2, PERCENT [1, 10] | SUBJECTS WITH SCORE >= 2, PERCENT [1, 11] | SUBJECTS WITH SCORE >= 2, PERCENT [1, 13] | SUBJECTS WITH SCORE >= 2, PERCENT [1, 14] | SUBJECTS WITH SCORE >= 2, PERCENT ([1]; UVA, a.m., 72 h post-radiation) | SUBJECTS WITH SCORE >= 2, PERCENT ([1]; UVA, p.m., 0 h post-radiation) | SUBJECTS WITH SCORE >= 2, PERCENT ([1]; UVA, p.m., 3 h post-radiation) | SUBJECTS WITH SCORE >= 2, PERCENT ([1]; UVA, p.m., 6 h post-radiation) | SUBJECTS WITH SCORE >= 2, PERCENT ([1]; UVA, p.m., 24 h post-radiation) | SUBJECTS WITH SCORE >= 2, PERCENT ([1]; UVA, p.m., 48 h post-radiation) | SUBJECTS WITH SCORE >= 2, PERCENT ([1]; UVA, p.m., 72 h post-radiation)
1 subjects: NUMBER OF SUBJECTS WITH SCORE >= 2, COUNT [1, 12] | NUMBER OF SUBJECTS WITH SCORE >= 2, COUNT ([1]; UVA, a.m., 0 h post-radiation)
no significant changes: changes in rate or extent of exposure (Cmax, Tmax, t1/2 or AUC) [2]
15.38%: SUBJECTS WITH SCORE >= 2, PERCENT [1, 5] | SUBJECTS WITH SCORE >= 2, PERCENT ([1]; UVA, a.m., 48 h post-radiation)
7.69%: SUBJECTS WITH SCORE >= 2, PERCENT [1, 12] | SUBJECTS WITH SCORE >= 2, PERCENT ([1]; UVA, a.m., 0 h post-radiation)
2 subjects: NUMBER OF SUBJECTS WITH SCORE >= 2, COUNT [1, 5] | NUMBER OF SUBJECTS WITH SCORE >= 2, COUNT ([1]; UVA, a.m., 48 h post-radiation)
0 subjects: NUMBER OF SUBJECTS WITH SCORE >= 2, COUNT [1, 3] | NUMBER OF SUBJECTS WITH SCORE >= 2, COUNT [1, 4] | NUMBER OF SUBJECTS WITH SCORE >= 2, COUNT [1, 6] | NUMBER OF SUBJECTS WITH SCORE >= 2, COUNT [1, 7] | NUMBER OF SUBJECTS WITH SCORE >= 2, COUNT [1, 8] | NUMBER OF SUBJECTS WITH SCORE >= 2, COUNT [1, 9] | NUMBER OF SUBJECTS WITH SCORE >= 2, COUNT [1, 10] | NUMBER OF SUBJECTS WITH SCORE >= 2, COUNT [1, 11] | NUMBER OF SUBJECTS WITH SCORE >= 2, COUNT [1, 13] | NUMBER OF SUBJECTS WITH SCORE >= 2, COUNT [1, 14] | NUMBER OF SUBJECTS WITH SCORE >= 2, COUNT ([1]; UVA, a.m., 72 h post-radiation) | NUMBER OF SUBJECTS WITH SCORE >= 2, COUNT ([1]; UVA, p.m., 0 h post-radiation) | NUMBER OF SUBJECTS WITH SCORE >= 2, COUNT ([1]; UVA, p.m., 3 h post-radiation) | NUMBER OF SUBJECTS WITH SCORE >= 2, COUNT ([1]; UVA, p.m., 6 h post-radiation) | NUMBER OF SUBJECTS WITH SCORE >= 2, COUNT ([1]; UVA, p.m., 24 h post-radiation) | NUMBER OF SUBJECTS WITH SCORE >= 2, COUNT ([1]; UVA, p.m., 48 h post-radiation) | NUMBER OF SUBJECTS WITH SCORE >= 2, COUNT ([1]; UVA, p.m., 72 h post-radiation)
